Assay [1] has as its target T1, Pig calcitonin receptor (CTR) (Sus scrofa, UniProt P25117).
T1 construct: expressed in transfected cells; host or cells: COS-7 (given as rhesus monkey renal cells), vector pcDNA 3.1
T1 sequence (P25117 30-498): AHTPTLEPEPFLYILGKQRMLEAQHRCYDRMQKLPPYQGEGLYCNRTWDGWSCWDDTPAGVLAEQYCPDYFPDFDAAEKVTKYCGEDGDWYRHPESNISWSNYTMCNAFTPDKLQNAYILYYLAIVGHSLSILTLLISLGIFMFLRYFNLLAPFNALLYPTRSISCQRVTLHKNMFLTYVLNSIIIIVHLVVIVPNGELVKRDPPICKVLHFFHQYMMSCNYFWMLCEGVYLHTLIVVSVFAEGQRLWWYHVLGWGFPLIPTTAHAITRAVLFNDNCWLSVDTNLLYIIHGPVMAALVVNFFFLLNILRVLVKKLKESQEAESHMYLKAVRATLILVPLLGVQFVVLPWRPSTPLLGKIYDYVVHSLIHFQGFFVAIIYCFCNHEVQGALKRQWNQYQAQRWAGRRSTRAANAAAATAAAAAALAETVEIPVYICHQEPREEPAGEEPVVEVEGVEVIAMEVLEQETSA
The assay is described as follows: cAMP production in COS-7 cells expressing pig calcitonin receptor. The class given is cell-based. Here is the method: (§1) Pig calcitonin receptor (CTR) was introduced into a mammalian expression vector pcDNA 3.1, expressed in rhesus monkey renal cells (COS-7) and production amount of cAMP by stimulation of CRSP was measured by radioimmunoassay. Similarly, CTR was expressed in opossum renal cells (OK cells) and production amount of cAMP by stimulation of CRSP was measured by radioimmunoassay while incorporation of sodium ion was measured by measuring the incorporation of sodium chloride having radioactivity (^22Na) by a gamma-counter.
Pig calcitonin receptor (CTR) was introduced into mammalian expression vector pcDNA 3.1 and then expressed in rhesus monkey renal cells (COS-7) whereupon production amount of cAMP by CRSP stimulation was measured by radioimmunoassay.
Pig calcitonin receptor (CTR) was introduced into a mammalian expression vector pcDNA 3.1 and expressed in rhesus monkey renal cells (COS-7) and production amount of cAMP by CRSP stimulation was measured by radioimmunoassay.
Pig calcitonin receptor (CTR) was introduced into a mammalian expression vector pcDNA 3.1, then expressed in rhesus monkey renal cells (COS-7) and production amount of cAMP by CRSP or CRSP-Gly stimulation was measured-by radioimmunoassay.
In general terms: cAMP levels reflect the balance of adenylyl cyclase and phosphodiesterase activity.

The test system of assay [2] is LLC-PK1 cells. Put plainly: cAMP production in LLC-PK1 cells (radioimmunoassay). It is filed as cell-based, pig. The note with it: ratio of ED50. The method, then: CRSP dissolved in DMEM was added to a medium for LLC-PK1 cells and amount of cAMP secreted therefrom was quantified by means of radioimmunoassay using a cAMP-specific antibody.
LLC-PK1 cells were incubated in a culture medium (a Dulbecco-modified Eagle medium (DMEM) containing 10% of fetal calf serum (FCS)), CRSP dissolved in DMEM containing 0.05% of bovine serum albumin was substituted for a culture medium for the cells after two days, incubation was conducted for 30 minutes, the medium was recovered and amount of the secreted cAMP was quantified by radioimmunoassay using a cAMP-specific antibody.

Assay [3] has as its system LLC-PK1 cells. The assay is described as follows: Suppression of cell proliferation (125I-DU incorporation, cell count). The note with it: 125I-DU incorporation and cell count. The class given is cell-based, pig. Here is the method:
A solution of each peptide in DMEM in each concentration was added to LLC-PK1 cells, then DMEM (containing 0.1% BSA) which contained bromodeoxyuridine labeled with ^125I (^125I-DU) was added to each well and, after 5 hours, radioactivity incorporated into the nuclei was measured by a gamma-counter to measure the DNA amount synthesized as a result of cell proliferation.
With regard to the number of proliferated cells, each solution of CRSP in DMEM in various concentrations was added to LLC-PK1 cells of 10,000 cells/well, incubation was conducted, the cells on the incubation dish was taken out by a trypsin-EDTA solution and cell numbers were counted using a counting plate.
LLC-PK1 cells were incubated for two days in a DMEM (containing 10% of FCS) on a 24-well collagen plate, once washed with a DMEM and substituted with a DMEM (containing 10% of FCS) containing 0 and 10^−12 to 10^−6 M of CRSP followed by incubating. After 2 hours, a DMEM (containing 0.1% of BSA) containing ^125I-labeled bromodeoxyuridine was added to each well and, after 5 hours, radioactivity incorporated into the nuclei was measured by a gamma-counter whereupon the amount of DNA synthesized as a result of cell proliferation was measured.
Similarly, LLC-PK1 cells of 10,000 cells/well were sown on a 24-well collagen plate and incubated with a DMEM (containing 10% of FCS) for 24 hours. […]

The subject of assay [4] is LLC-PK1 cells. The assay is described as follows: Incorporation of calcium ion (45Ca) in LLC-PK1 cells. The class given is cell-based, pig. The note with it: 10 minutes. The method, then: The results are shown in FIG. 5 (incorporation of sodium ion in the absence of EIPA), FIG. 6 (incorporation of sodium ion in the presence of EIPA) and FIG. 7 (incorporation of calcium ion).
Incorporation of calcium ion was conducted as follows. Thus, LLC-PK1 cells were washed with a Hanks' solution (calcium-free Hanks' solution) where concentration of calcium chloride was lowered to 0 mM. Calcium chloride (^45Ca) was added to a calcium-free Hanks' solution on the cells together with CRSP, the cells were washed after 10 minutes to completely wash out ^45Ca contained in the solution outside the cells and radioactivity incorporated into the cells was measured by a liquid scintillation counter.

The target of assay [5] is T1, Pig calcitonin receptor (CTR). The assay is described as follows: Incorporation of sodium ion (22Na) in OK cells expressing CTR. The class given is cell-based. The conditions noted are these: CTR expressed in OK cells. The method, then: as §1, with “gamma-counter. The results are shown in FIG. 10 (changes in cAMP productivity by CRSP stimulation in cells (COS-7) where calcitonin receptor was expressed in a genetic engineering manner), FIG. 11 (changes in cAMP productivity in opossum renal epithelial cells where pig calcitonin receptor (CTR) was expressed) and FIG. 12 (changes in incorporation of sodium ion in opossum renal epithelial cells where pig calcitonin receptor (CTR) was expressed).” for “gamma-counter.”
Similarly, CTR was expressed in opossum renal cells (OK cells) and production amount of cAMP by CRSP stimulation was measured by radioimmunoassay while incorporation of sodium ion was measured by incorporation of radioactive sodium chloride (^22Na) using a gamma-counter.

SMILES strings stand for the structures. pEC50: −log10 of the molar value. Where a SMILES comes first, the peptide text is derived from it. Bridges are numbered along the chain shown (N, C = ends).

In the case of `CSCC[C@H](NC(=O)[C@H](CCCCN)NC(=O)[C@@H](NC(=O)[C@@H]1CCCN1C(=O)[C@H](CC(C)C)NC(=O)[C@H](CC(C)C)NC(=O)[C@H](CC(N)=O)NC(=O)[C@H](CO)NC(=O)[C@H](CCCNC(=N)N)NC(=O)[C@@H](NC(=O)[C@H](CCSC)NC(=O)[C@H](CO)NC(=O)CNC(=O)[C@H](CO)NC(=O)[C@H](CCCNC(=N)N)NC(=O)[C@H](CO)NC(=O)[C@H](CC(C)C)NC(=O)[C@H](CC(C)C)NC(=O)CNC(=O)[C@@H](NC(=O)[C@H](CC(C)C)NC(=O)[C@H](CCCNC(=N)N)NC(=O)[C@H](Cc1c[nH]cn1)NC(=O)[C@@H](NC(=O)[C@H](CCSC)NC(=O)[C@@H]1CSSC[C@H](NC(=O)[C@@H](N)CO)C(=O)N[C@@H](CC(N)=O)C(=O)N[C@@H]([C@@H](C)O)C(=O)N[C@@H](C)C(=O)N[C@@H]([C@@H](C)O)C(=O)N1)[C@@H](C)O)C(C)C)C(C)C)[C@@H](C)O)C(=O)NCC(=O)N[C@@H](Cc1ccccc1)C(=O)N[C@@H](CCCCN)C(=O)N[C@H](C(=O)N[C@@H](Cc1ccccc1)C(=O)NCC(N)=O)C(C)C` [CRSP] (H-SCNTATCMTHRLVGLLSRSGSMVRSNLLPTKMGFKVFG-NH2; disulfide 2-7), the “cAMP productivity, CRSP compared with CRSP-Gly” value in assay [1] (CTR expressed in COS-7) is listed as “nearly the same cAMP productivity”. Also, the “activity stronger than pig calcitonin” value in assay [1] (CTR expressed in COS-7, ratio of ED50) was “about 350 fold”. Moreover, the pEC50 in assay [1] (CTR expressed in COS-7, read-out: ED50, increase of intracellular adenylyl cyclase activity (cAMP production)) is roughly 9.70. Further, in the assay on LLC-PK1 cells [2], the “activity stronger than pig CGRP” value was “about 40 fold” and the “activity stronger than pig calcitonin” value is reported as “about 6 fold”. For the same compound, in the assay with LLC-PK1 cells [3], the “growth of LLC-PK1 cells” value is listed as “suppressing the growth of LLC-PK1 cells”. For the same compound, the “incorporation of calcium into cells” value in the assay on LLC-PK1 cells [4] was “suppressed”. In addition, in assay [5], the “amyloride-sensitive Na/H co-transporter” value is reported as “activated” and the “incorporation of sodium into cells” value is “promoted”.

(Values after patent US20050256302A1, “Novel peptides having camp producing activity” (Japan Science and Technology Agency, priority 2002, published 2005).)
